The nature of this series: Gravimetric vapor sorption (GVS) moisture adsorption desorption isotherm. To be noted: 25° C. and 90% humidity. The format is physicochemical. The procedure: A gravimetric vapor sorption (GVS) study was run using a standard procedure. Samples were run on a dynamic vapor sorption analyzer (Surface Measurement Systems) running DVSCFR software. Sample sizes were typically 10 mg. A moisture adsorption desorption isotherm was performed as outlined below. The standard isotherm experiment, performed at 25° C., is a two-cycle run, starting at 40% RH (relative humidity), increasing humidity to 90% RH, decreasing humidity to 0% RH, increasing humidity again to 90% RH, and finally decreasing humidity to 0% RH in 10% RH intervals.

Results on one molecule are retold here after patent US9969692B2, “Process for preparing quinoline derivatives” (Exelixis, Inc., priority 2011, dated 2018).

`COc1cc2c(Oc3ccc(NC(=O)C4(C(=O)Nc5ccc(F)cc5)CC4)cc3F)ccnc2cc1OCCCN1CCOCC1.O` [crystalline Compound 1, N-[3-fluoro-4-({6-(methyloxy)-7-[(3-morpholin-4-ylpropyl)oxy]quinolin-4-yl}oxy)phenyl]-N′-(4-fluorophenyl)cyclopropane-1,1-dicarboxamide crystalline hydrate]: the “weight gain (GVS)” value was found to be 2.5%.
